From publication PMC8948939 (Pharmaceutics, 2022)
“And” between values parts separate entries of the source, which are not always exact repeats. Equal values may be shown once. Read-outs that look alike come from different tables or passages of the source.

Tests used:
[1] = target: T1, CYP3A4 in human liver microsomes (HLM) (Homo sapiens, UniProt P08684); test: Michaelis-Menten kinetics of midazolam 1-hydroxylation (CYP3A4 marker reaction) in HLM; assay type: in vitro ADME; details: midazolam 1-hydroxylation; HLM
T1 construct: tissue Corning Inc; host or cells: pooled human liver microsomes (150 donors)
From the text: (§1) Towards the Elucidation of the Pharmacokinetics of
(§2) Josefine Schulz 1, Antonia Thomas 1, Ayatallah Saleh 1,2, Gerd Mikus 1,3, Charlotte Kloft 1,† and Robin Michelet 1,*,† 1 Department of Clinical Pharmacy & Biochemistry, Institute of Pharmacy, Freie Universitaet Berlin, Kelchstraße 31, 12169 Berlin, Germany
(§3) 2 Graduate Research Training Program PharMetrX, 12169 Berlin/Potsdam, Germany 3 Department of Clinical Pharmacology and Pharmacoepidemiology, University Hospital Heidelberg, Im Neuenheimer Feld 410, 69120 Heidelberg, Germany
(§4) * Correspondence: robin.michelet@fu-berlin.de; Tel.: +49-30-838-50659
(§5) † These authors contributed equally to this work
(§6) Supplementary Section S1. Marker reactions for CYP2C19, CYP2C9 and CYP3A4 […]
(§7) for CYP3A4 [1,2] were used to determine (i) intersystem extrapolation factors (ISEF), (ii) […]
(§8) (i) Experiments for the determination of Michaelis-Menten kinetics in HLM were performed at protein concentrations of 0.02, 0.04 and 0.05 mg/mL for the marker reactions of CYP2C19, CYP2C9 and CYP3A4 (n = 3 each), respectively. Two samples were taken from each incubation after 15 and 25 min for investigations on CYP2C19, after 5 and 10 min for CYP2C9 and after 7 and 12 min for CYP3A4, respectively. […]
(§9) were applied as substrate concentrations.
(§10) For investigations in rhCYP concentrations of 2.5 pmol/mL rhCYP2C19 (n = 3), […]
(§11) respectively. […]

CYP3A4 [2] = target: T2, CYP3A4 (Homo sapiens, UniProt P08684); test: Michaelis-Menten kinetics of midazolam 1-hydroxylation by rhCYP3A4; assay type: in vitro ADME; set-up: purchased Corning Inc
From the text: as §1, §2, §3, §4, §5, §6, §7, §8, §9, §10
Target sequence in this assay (P08684 whole entry): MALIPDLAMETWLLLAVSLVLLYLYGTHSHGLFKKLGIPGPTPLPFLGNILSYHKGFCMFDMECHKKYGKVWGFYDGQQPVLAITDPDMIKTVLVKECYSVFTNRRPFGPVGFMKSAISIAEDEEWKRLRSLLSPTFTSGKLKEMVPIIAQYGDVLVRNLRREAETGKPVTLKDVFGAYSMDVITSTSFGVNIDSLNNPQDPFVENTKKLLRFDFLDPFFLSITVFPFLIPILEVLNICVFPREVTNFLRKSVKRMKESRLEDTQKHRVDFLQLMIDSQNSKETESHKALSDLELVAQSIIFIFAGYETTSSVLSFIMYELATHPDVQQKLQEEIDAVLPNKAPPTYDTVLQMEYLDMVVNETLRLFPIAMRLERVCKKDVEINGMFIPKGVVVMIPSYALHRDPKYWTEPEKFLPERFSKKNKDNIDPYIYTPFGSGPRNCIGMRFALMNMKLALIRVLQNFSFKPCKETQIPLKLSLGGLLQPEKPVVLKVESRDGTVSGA
respectively. Sampling time points were identical to those in HLM as were substrate […]
concentration of 0.2 mg/mL for 15 and 25 min (n = 2). Each probe substrate was incubated in the presence of each inhibitor. […]
(§12) were performed at concentrations of 0.2, 0.08 and 0.05 mg/mL HLM for CYP2C19, CYP2C9 and CYP3A4, respectively. IC50 and IC50 shift assays were performed at substrate […]
Reaction times were identical to those described […]

CYP3A4 [3] = target: T2, CYP3A4; test: Michaelis-Menten kinetics of midazolam 1-hydroxylation (CYP3A4 marker reaction) in HLM; assay type: in vitro ADME; set-up: tissue Corning Inc; host or cells: pooled human liver microsomes (150 donors); details: human, human liver microsomes
From the text: as §1, §2, §3, §4, §5, §6, §7, §8, §9, §10, §11
Target sequence in this assay (P08684 2-503 limits assumed): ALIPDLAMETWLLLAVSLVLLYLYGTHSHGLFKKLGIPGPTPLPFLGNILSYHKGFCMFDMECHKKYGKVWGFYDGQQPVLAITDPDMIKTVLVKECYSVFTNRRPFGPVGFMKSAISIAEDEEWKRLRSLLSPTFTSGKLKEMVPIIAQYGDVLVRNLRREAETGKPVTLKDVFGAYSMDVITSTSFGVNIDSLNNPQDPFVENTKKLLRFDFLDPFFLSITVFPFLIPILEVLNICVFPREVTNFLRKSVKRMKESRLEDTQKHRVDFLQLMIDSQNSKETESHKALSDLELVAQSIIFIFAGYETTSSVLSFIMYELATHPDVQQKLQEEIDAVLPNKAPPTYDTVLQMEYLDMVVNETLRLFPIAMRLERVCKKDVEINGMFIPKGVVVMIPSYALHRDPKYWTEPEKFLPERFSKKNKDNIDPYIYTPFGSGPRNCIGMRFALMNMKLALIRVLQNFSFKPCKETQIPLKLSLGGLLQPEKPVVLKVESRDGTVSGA

[4] = system: human liver microsomes (HLM); test: Metabolic stability of voriconazole N-oxide and hydroxyvoriconazole in HLM; assay type: in vitro ADME; details: HLM 0.2 mg/mL
Experimental: An incubation without HLM served as a control (n = 1).

CYP3A4 [5] = details: cited from earlier work
CYP2C19 [6] = target: T3, CYP2C19 (Homo sapiens, UniProt P33261); test: IC50 and IC50 shift on CYP2C19 marker reaction (S-mephenytoin 4-hydroxylation) in HLM; assay type: in vitro ADME; set-up: tissue Corning Inc; host or cells: pooled human liver microsomes (150 donors)
Experimental: (§13) Remaining activity (A, %) was calculated as the ratio of reaction velocities in the inhibited and non-inhibited incubations. IC50 and the steepness of the inhibition curve (H) were estimated by fitting the four-parameter inhibition model to the experimental data (Equation (9)). Maximum (Amax) and baseline activity (A0) were fixed to 100 and 0, respectively. […] (9) A,%=A0+Amax−A0/1+logCInhib/logIC50^H=100/1+logCInhib/logIC50^H […]
as §6, §7
(§14) Each probe substrate was incubated in the presence of each inhibitor. […]
as §12
(§15) Reaction times were identical to those described

CYP2C9 [7] = target: T4, CYP2C9 (Homo sapiens, UniProt P11712); test: IC50 and IC50 shift on CYP2C9 marker reaction (diclofenac 4-hydroxylation) in HLM; assay type: in vitro ADME; set-up: tissue Corning Inc; host or cells: pooled human liver microsomes (150 donors)
Experimental: as §13
Supplementary Section S1. […]
Two samples were taken
from each incubation after 15 and 25 min for investigations on CYP2C19, after 5 and
10 min for CYP2C9 and after 7 and 12 min for CYP3A4, respectively. […]
CYP2C9 and CYP3A4, respectively. IC50 and IC50 shift assays were performed at substrate
as §15

CYP3A4 [8] = target: T2, CYP3A4; test: IC50 and IC50 shift on CYP3A4 marker reaction (midazolam 1-hydroxylation) in HLM; assay type: in vitro ADME; set-up: tissue Corning Inc; host or cells: pooled human liver microsomes (150 donors); details: for IC50 shift: human, human liver microsomes, pH 7.5, probe midazolam 1-hydroxylation (4.60 µM midazolam)
Experimental: as §13, §6, §7
Target sequence in this assay (P08684 2-503 limits assumed): as above
Two samples were taken […]
from each incubation after 15 and 25 min for investigations on CYP2C19, after 5 and 10 min for CYP2C9 and after 7 and 12 min for CYP3A4, respectively. […]
CYP2C9 and CYP3A4, respectively. IC50 and IC50 shift assays were performed at substrate […]
as §15

CYP2C19 [9] = target: T3, CYP2C19; test: Type of reversible inhibition and Ki on CYP2C19 (S-mephenytoin 4-hydroxylation) in HLM; assay type: in vitro ADME; set-up: tissue Corning Inc; host or cells: pooled human liver microsomes (150 donors)
Experimental: (§16) Reaction velocities were investigated in function of the substrate ([S]) and inhibitor ([I]) concentration to determine KM, Vmax and Ki of the reaction. The obtained data were used to fit the three main models of reversible inhibition, i.e., competitive (Equation (10)), noncompetitive (Equation (11)) and uncompetitive (Equation (12)) using the “nls” function in R. The type of inhibition was determined according to the best model fit assessed with Akaike’s information criteria (AIC). […] (10) V=Vmax/1+KM/S1+I/Ki (11) V=Vmax/1+KM/S1+I/Ki (12) V=Vmax/1+KM/S+I/Ki […]
as §6, §7, §8
(§17) were applied as substrate concentrations. […]
as §14, §12, §15

CYP2C9 [10] = target: T4, CYP2C9; test: Type of reversible inhibition and Ki on CYP2C9 (diclofenac 4-hydroxylation) in HLM; assay type: in vitro ADME; set-up: tissue Corning Inc; host or cells: pooled human liver microsomes (150 donors)
Experimental: as §16, §6, §7, §8, §17, §14, §12, §15

CYP3A4 [11] = target: T2, CYP3A4; test: Type of reversible inhibition and Ki on CYP3A4 (midazolam 1-hydroxylation) in HLM; assay type: in vitro ADME; set-up: tissue Corning Inc; host or cells: pooled human liver microsomes (150 donors)
Experimental: as §16, §6, §7, §8, §17, §14, §12, §15
Target sequence in this assay (P08684 2-503 limits assumed): as above

CYP2C19 [12] = target: T3, CYP2C19; set-up: tissue Corning Inc; host or cells: pooled human liver microsomes (150 donors); details: ref Hohmann et al. 42; cited from earlier work
CYP2C9 [13] = target: T4, CYP2C9; set-up: tissue Corning Inc; host or cells: pooled human liver microsomes (150 donors); details: ref Giri et al. 84; cited from earlier work
[14] = midazolam 1-hydroxylation, rhCYP3A4
[15] = 30 min pre-incubation in the absence of NADPH
[16] = 30 min pre-incubation in the absence of NADPH, read-out: IC50 NADPH (−) (95% Confidence Interval)
[17] = 30 min pre-incubation in the presence of NADPH
[18] = 30 min pre-incubation in the presence of NADPH, read-out: IC50 NADPH (+) (95% Confidence Interval)

T4 sequence (P11712 whole entry): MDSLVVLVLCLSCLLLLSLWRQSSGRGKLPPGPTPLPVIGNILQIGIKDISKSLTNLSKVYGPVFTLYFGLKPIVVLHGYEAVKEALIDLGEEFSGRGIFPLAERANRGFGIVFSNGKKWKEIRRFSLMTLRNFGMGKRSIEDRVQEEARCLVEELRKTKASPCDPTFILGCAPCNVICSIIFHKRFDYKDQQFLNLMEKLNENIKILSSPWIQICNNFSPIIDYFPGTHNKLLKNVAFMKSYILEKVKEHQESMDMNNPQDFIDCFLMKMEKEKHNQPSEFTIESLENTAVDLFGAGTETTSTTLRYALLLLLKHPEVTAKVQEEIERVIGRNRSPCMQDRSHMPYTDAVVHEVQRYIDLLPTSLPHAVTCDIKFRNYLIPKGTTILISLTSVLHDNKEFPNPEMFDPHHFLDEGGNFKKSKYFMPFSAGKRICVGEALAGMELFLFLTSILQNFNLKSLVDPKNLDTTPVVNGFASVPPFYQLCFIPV
T3 sequence (P33261 whole entry): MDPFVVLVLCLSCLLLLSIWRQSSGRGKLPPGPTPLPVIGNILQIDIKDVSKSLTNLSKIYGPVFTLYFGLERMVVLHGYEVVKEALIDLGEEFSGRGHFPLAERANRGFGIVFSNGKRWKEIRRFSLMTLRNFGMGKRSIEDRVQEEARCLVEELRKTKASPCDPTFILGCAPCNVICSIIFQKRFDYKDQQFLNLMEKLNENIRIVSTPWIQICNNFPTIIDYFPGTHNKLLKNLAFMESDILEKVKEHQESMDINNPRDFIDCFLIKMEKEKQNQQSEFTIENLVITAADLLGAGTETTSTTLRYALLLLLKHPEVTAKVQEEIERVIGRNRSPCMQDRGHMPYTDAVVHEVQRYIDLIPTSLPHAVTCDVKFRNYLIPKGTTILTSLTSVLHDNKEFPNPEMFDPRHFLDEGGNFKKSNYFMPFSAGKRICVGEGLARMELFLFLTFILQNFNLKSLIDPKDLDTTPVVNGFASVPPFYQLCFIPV
T1 sequence (P08684 2-503 limits assumed): as the sequence (P08684 2-503 limits assumed) above

Cc1ncc2n1-c1ccc(Cl)cc1C(c1ccccc1F)=NC2 [Midazolam, midazolam]
Vmax,HLM (95% CI) [1]: 559 pmol/min/mg | Km (CYP3A4 [2]; human, recombinant human CYP3A4 (rhCYP3A4)): 1.96 µM | CLint, rhCYP (CYP3A4 [2]; [14]): 0.850 µL/min/pmol | Vmax,rhCYP (95% CI) (CYP3A4 [2]; [14]): 1.67 pmol/min∙pmol | Km (CYP3A4 [3]): 4.45 µM | microsomal CLint (CYP3A4 [3]; pH 7.5, midazolam 1-hydroxylation, HLM): 126 µL/min/mg

C[C@@H](c1nc[n+]([O-])cc1F)[C@](O)(Cn1cncn1)c1ccc(F)cc1F [NO, voriconazole N-oxide]
depletion over time when incubated directly with HLM ([4]; 5-60 min, 0.137 and 1.10 µM): no depletion | % compared to a control incubation without HLM after 60 min ([4]; high concentration (1.10 µM), single replicates): 96.9% and 109% | IC50 (CYP3A4 [5]; ref Giri et al. 84): 8.7 µM | IC50 (CYP3A4 [5]; ref Hohmann et al. 42): 146 µM | IC50 Shift NADPH (−) (CYP2C19 [6]; [15]): 0.641 | IC50 (CYP2C19 [6]; [16]): > 34.2 µM | IC50 Shift NADPH (+) (CYP2C19 [6]; [17]): 0.900 | IC50 (CYP2C19 [6]; [18]): > 34.2 µM | time dependence of inhibition (CYP2C19 [6]; IC50 shift assay): Time-independent inhibition | IC50 (CYP2C19 [6]; without pre-incubation, […] S-mephenytoin, HLM, NO and OH–VRC estimates exceed applied concentrations (max 34.2 µM), read-out: IC50 (95% Confidence Interval)): > 34.2 µM | IC50 (CYP2C9 [7]; [16]): 10.1 µM | IC50 (CYP2C9 [7]; [18]): 14.9 µM | time dependence of inhibition (CYP2C9 [7]; IC50 shift assay): Time-independent inhibition | IC50 shift (CYP2C9 [7]; human, human liver microsomes, pH 7.5, probe diclofenac 4-hydroxylation (4.73 µM diclofenac), 30 min pre-incubation in the absence of NADPH): 1.34 | IC50 shift at 30 min (CYP2C9 [7]; human, human liver microsomes, pH 7.5, probe diclofenac (4-hydroxylation), 4.73 µM, 30 min pre-incubation in the presence of NADPH): 0.899 | IC50 (CYP2C9 [7]; without pre-incubation, 4.73 µM diclofenac, HLM, read-out: IC50 (95% Confidence Interval)): 13.4 µM | IC50 (CYP3A4 [8]; [16]): 6.96 µM | IC50 Shift NADPH (+) (CYP3A4 [8]; [17]): 1.54 | IC50 (CYP3A4 [8]; [18]): 2.91 µM | time dependence of inhibition (CYP3A4 [8]; IC50 shift assay): Time-independent inhibition | IC50 shift (CYP3A4 [8]; [15]): 0.644 | IC50 shift (CYP3A4 [8]; [17]): > 1.5 | IC50 (CYP3A4 [8]; without pre-incubation, 4.60 µM midazolam, HLM, read-out: IC50 (95% Confidence Interval)): 4.48 µM | Type of Reversible Inhibition (CYP2C19 [9]; CYP2C19, best model fit by AIC): noncompetitive | inhibitory effect on CYP2C19 relative to VRC (fold lower, from Ki) (CYP2C19 [9]; compared to VRC): 31 fold | Ki (CYP2C19 [9]; read-out: Ki (95% CI)): 58.6 µM | Type of Reversible Inhibition (CYP2C9 [10]; CYP2C9, best model fit by AIC): competitive | inhibitory effect on CYP2C9 relative to VRC (fold, from Ki) (CYP2C9 [10]; compared to VRC): 2.1 fold | Ki (CYP2C9 [10]; read-out: Ki (95% CI)): 5.47 µM | Type of Reversible Inhibition (CYP3A4 [11]; CYP3A4, best model fit by AIC): noncompetitive | Ki (CYP3A4 [11]; CYP3A4, midazolam 1-hydroxylation, HLM, read-out: Ki (95% CI)): 5.24 µM | inhibitory effect on CYP3A4 relative to VRC (fold, from Ki) (CYP3A4 [11]; compared to VRC): 1.9 fold | IC50 (CYP2C19 [12]): 40.2 µM | IC50 (CYP2C9 [13]): 11.2 µM
